Test results taken from publication PMC7469393, “Binding of 2-(Triazolylthio)acetamides to Metallo-β-lactamase CcrA Determined with NMR” (ACS Omega, 2020).

Columns and labels:
CcrA [1] = biological target: T1, CcrA (Bacteroides fragilis, UniProt P25910); experiment: 1H, […] HSQC NMR titration, chemical shift perturbation, fast exchange; type: binding
CcrA [2] = biological target: T1, CcrA; experiment: 1H, […] HSQC NMR titration, slow exchange (relative peak intensities); type: binding

T1 sequence (P25910 19-249): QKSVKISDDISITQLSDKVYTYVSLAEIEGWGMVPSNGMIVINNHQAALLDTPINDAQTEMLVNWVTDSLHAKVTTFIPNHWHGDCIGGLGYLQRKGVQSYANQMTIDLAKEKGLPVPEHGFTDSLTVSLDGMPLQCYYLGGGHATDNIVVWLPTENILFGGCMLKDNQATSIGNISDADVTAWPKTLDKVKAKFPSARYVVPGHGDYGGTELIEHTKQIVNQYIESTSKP

Row | Structure (SMILES) | Kd (CcrA [1]) [µM] | Kd (CcrA [2]) [µM]
1 | O=C(CSc1nnc(-c2ccccc2C(=O)O)[nH]1)Nc1nc2ccccc2s1 [compound 4, 4] | 11 ± 11 | –
2 | O=C(CSc1nnc(-c2ccccc2C(=O)O)[nH]1)Nc1ccccc1 [compound 5, 5] | 34 ± 43 | –
3 | O=C(CSc1nnc(-c2ccccc2C(=O)O)[nH]1)Nc1ccc(Cl)cc1 [compound 6, 6] | – | ~2.3
